From patent US20040058855A1, “Use of materials having zinc ionophoric behavior” (priority 2002, published 2004)
Like-named read-outs stand apart in the source and are kept apart here.

Columns and labels:
[1] = Zinc availability test with metallochromic dye zincon (colour change orange to blue); assay type: physicochemical; conditions: ~30 mg/10 ml water, pH 7-11, zincon in ethanol
Text: Zinc-containing materials (ZCMs) differ with respect to how strongly the zinc ion (Zn^2+) is held by counterions in the crystal lattice. The benefits discussed herein depend upon having available Zn^2+. […] The response is a binary visual assessment of whether or not the color changes indicating zinc-binding.
The method is based on the commercial metallochromic dye zincon. Zincon changes from an orange color to blue upon binding zinc and provides the basis for detecting available Zn^2+: [drawing 20]
The specific procedure involves making a stock solution of zincon in ethanol (˜50 mg/10 ml ethanol). The ZCM is then added to water (˜30 mg/10 ml water) and agitated (pH range should be 7-11). Three to four drops of zincon solution are then added to the ZCM in water, agitated and a visual assessment of color change made.

[2] = system: Malassezia furfur (ATCC 14521); assay: Minimum inhibitory concentration (MIC) against Malassezia furfur in mDixon agar; assay type: cell-based; conditions: for MIC: Malassezia furfur, lowest tested dilution with no visible growth, 30° for 5 days
Experimental: Antifungal activity is assessed microbiologically by a method as described below^1.
^1. The Minimum Inhibitory Concentration is indicative of anti-fungal efficacy. Generally, the lower the value of the composition, the better its anti-fungal efficacy, due to increased inherent ability of the anti-dandruff agent to inhibit the growth of microorganisms.
Dilutions of solubilized anti-microbial active were then added to test tubes containing molten mDixon agar. M. furfur inoculum was added to each tube of molten agar, the tube vortexed, and the contents poured into separate sterile petri dishes. […] The lowest tested dilution of anti-microbial active that yields no growth is defined as the Minimal Inhibitory Concentration (MIC).
1) Malassezia furfur was grown in a 250 ml Erlenmeyer flask containing 100 ml “mDIXON” medium at 320 rpm and 30° C. until turbid.
2) Selected dilutions were prepared using an appropriate dilution series, of the anti-microbial active or combination in solvent, which allowed the sample active to be solubilized prior to addition to the final test agar.
3) 0.25 ml dilutions of anti-microbial active were added to test tubes containing 9.5 ml molten “mDIXON” agar (held at 45° C. in a water bath).
4) 0.25 M. furfur inoculum (adjusted to 5×10^5 cfu/ml by direct count) was added to each test tube of molten agar.
5) Each tube was vortexed, and the contents poured into separate petri dishes.
6) After the agar solidified, the plates inverted and incubated at 30° for 5 days.
7) The plates were then observed for visible M. furfur growth.
Anti-fungal activity of materials having zinc ionophoric behavior was screened by measurement of minimum inhibitory concentrations (MIC's) against Malassezia furfur.

[3] = system: human umbilical vein endothelial cells; assay: Rate of zinc transport into model cells (intracellular zinc, Fura-2 fluorescence); assay type: cell-based; conditions: 1 mM ZPT (0.32 ppm) and an equal weight proportion of zinc salt
Experimental: Measurement of the free zinc levels in cells as a function of time is a direct measure of delivery of zinc across the cell wall/membrane. There are many methods available for assessing this process, many are based on use of intracellular fluorescent dyes. An exemplary method is similar to that reported by Turan et al. (Turan, […]. Am. J. Physiol. 1997, 272, […]-[…]). In this case, […] used, although the procedure is general and can be used with all eukaryotic cells. […] Cells are plated onto a glass cover slip. These immobilized cells are then exposed to a zinc-responsive fluorescent dye such as Fura-2 (Molecular Probes, Inc.) to load the cells with this cell-permeant fluorophore. The cells are then washed to remove dye that is not intracellular. Upon exposure to test treatments, fluorescence is measured as a function of time; in the case of Fura-2, the ratio of fluorescence intensities at 505 nm is taken in response to excitation at 340 and 380 nm. The fluorescence is conveniently measured by using an epifluorescence inverted microscope interfaced to a spectrofluorometer. Fluorescence intensity is proportional to the detected zinc level. […] TPEN) to assure the measured fluorescent response is due to zinc and not an artifact of calcium transport. In the present invention, the method as described herein may be used to identify materials with zinc ionophoric behavior.

[4] = ATCC14521, 120 h, read-out: MIC
[5] = to inhibit M. furfur growth, zinc salt alone (MIC) or together with the stated amount of ZPT

## zinc histadine
[1]
  available Zn^2+ (zincon colour change, binary visual assessment): have available zinc

## N=C(N)NCCC[C@H](N)C(=O)O.[Zn] [zinc arginine]
[1]
  available Zn^2+ (zincon colour change, binary visual assessment): have available zinc

## [OH-].[OH-].[Zn+2] [zinc hydroxide]
[1]
  available Zn^2+ (zincon colour change, binary visual assessment): have available zinc

## Oc1c(I)cc(Cl)c2cccnc12 [Enterovioform, 5-Cl, 7-I-8-hydroxyquinoline]
[2]; [4]
  MIC: 25 µg/mL

## zinc stearate
[1]
  available Zn^2+ (zincon colour change, binary visual assessment): have available zinc

## CC(O)C(=O)[O-].CC(O)C(=O)[O-].[Zn+2] (centres unmarked) [zinc lactate]
[1]
  available Zn^2+ (zincon colour change, binary visual assessment): have available zinc

## O=C([O-])CC(O)(CC(=O)[O-])C(=O)[O-].O=C([O-])CC(O)(CC(=O)[O-])C(=O)[O-].[Zn+2].[Zn+2].[Zn+2] [zinc citrate]
[1]
  available Zn^2+ (zincon colour change, binary visual assessment): have available zinc

## OCC(O)CO.[Zn] [zinc monoglycerolate]
[1]
  available Zn^2+ (zincon colour change, binary visual assessment): have available zinc

## CC(=O)[O-].CC(=O)[O-].[Zn+2] [zinc acetate]
[1]
  available Zn^2+ (zincon colour change, binary visual assessment): have available zinc

## CCCCN(CCCC)C(=S)SSC(=S)N(CCCC)CCCC [TBTDS, Tetra-n-butyl thiuram Disulfide]
[2]; [4]
  MIC: > 1000 µg/mL

## [O-]n1ccccc1=S.[O-]n1ccccc1=S.[Zn+2] [ZPT, zinc salt of 1-hydroxy-2-pyridinethione]
[3]
  Rate of Zinc Transport: 4 min⁻¹
[2]; [5]
  Antifungal activity of ZPT: Amount of zinc salt required: 0 ppm
[2]; to inhibit M. furfur growth, 100% ZPT is equivalent to 8 ppm (MIC of ZPT alone)
  Antifungal activity of ZPT: Amount of ZPT Required (%): 100%

## [O]=[Zn] [ZnO, zinc oxide]
[3]
  Rate of Zinc Transport: ˜0 min^−1
[2]; [5]
  Antifungal activity of ZPT: Amount of zinc salt required: 500 ppm
[1]
  available Zn^2+ (zincon colour change, binary visual assessment): have available zinc

## O=C([O-])C(=O)[O-].[Zn+2] [zinc oxalate]
[1]
  available Zn^2+ (zincon colour change, binary visual assessment): have available zinc

## O=C([O-])CN(CCN(CC(=O)[O-])CC(=O)[O-])CC(=O)[O-].[Na+].[Na+].[Zn+2] [zinc EDTA]
[1]
  available Zn^2+ (zincon colour change, binary visual assessment): not having available Zn^2+

## Oc1c(I)cc(I)c2cccnc12 [Diodoquin, 5,7-Diiodo-8-hydroxyquinoline]
[2]; [4]
  MIC: 25 µg/mL

## O=S(=O)([O-])[O-].[Zn+2] [ZnSO4, zinc sulfate]
[3]
  Rate of Zinc Transport: ˜0 min^−1
[2]
  Antifungal activity of ZPT: Amount of zinc salt required: 5000 ppm
[1]
  available Zn^2+ (zincon colour change, binary visual assessment): have available zinc

## Cc1ccc2c(Cl)cc(Cl)c(O)c2n1 [Sterosan, 2-Me, 5,7-Dichloro-8-hydroxyquinoline]
[2]; [4]
  MIC: 100 µg/mL

## zinc hexaborate
[1]
  available Zn^2+ (zincon colour change, binary visual assessment): have available zinc

## Oc1c(Br)cc(Br)c2cccnc12 [5,7-D-Br-8-HQ, 5-7-Bibromo-8-hydroxyquinoline]
[2]; [4]
  MIC: 25 µg/mL

## zinc phytate
[1]
  available Zn^2+ (zincon colour change, binary visual assessment): not having available Zn^2+

## CNc1ccc2oc(C[C@H]3O[C@@]4(CC[C@H]3C)O[C@H]([C@H](C)C(=O)c3ccc[nH]3)[C@H](C)C[C@H]4C)nc2c1C(=O)O [A23187, Calcimycin]
[2]; [4]
  MIC: > 13 µg/mL

## Lasalocid
[2]
  MIC: >1000 ppm

## [Cl-].[Cl-].[Zn+2] [zinc chloride]
[1]
  available Zn^2+ (zincon colour change, binary visual assessment): have available zinc
